One assay concerns Bemisia tabaci. Kind of assay: Test Example 2: spray test against Bemisia tabaci instar larvae on tomato seedling. In kind it is in vivo. The settings on record: 168 h, 500 ppm active ingredient, formulation of Formulation Example 5 diluted with water, 10 ml/cup sprayed on tomato seedling, greenhouse at 25° C., after 7 days. As for the experimental part: On the other hand, Bemisia tabaci adult was released on a tomato seeding (the third true leaf stage) planted in a polyethylene cup, and made to lay eggs for about 24 hours. The tomato seedling was kept in a greenhouse for 8 days. When instar larvae hatched from the eggs, the above test spray solution was sprayed in the amount of 10 ml/cup. The cup was kept in a greenhouse at 25° C. After the keeping for 7 days, the number of surviving instar larvae on the tomato leaves was examined, and a control value was calculated according to the following equation: Control value(%)={1−(Cb×Tai)/(Cai×Tb))×100 wherein symbols represent as follows: Cb: the number of pests in a non-treated section before treatment, Cai: the number of pests in a non-treated section in observation, Tb: the number of pests in a treated-section before treatment, Tai: the number of pests in a treated-section in observation.

The test system of a further assay is Aphis gossypii. Kind of assay: Test Example 1: spray test against Aphis gossypii on cucumber seedling. Type of assay: in vivo. The settings on record: 144 h, 500 ppm active ingredient, formulation of Formulation Example 5 diluted with water, 20 ml sprayed on cucumber seedling, six days after spraying. As for the experimental part: On the other hand, about 30 Aphis gossypii were incubated on a cucumber seeding (the first true leaf stage) planted in a plastic cup, and leaving it for a day. 20 ml of each of the above test spray solutions was sprayed on this seeding. Six days after spraying, the number of the surviving Aphis gossypii parasitized on the leaves of the cucumber was examined, and a control value was calculated according to the following equation: Control value(%)={1−(Cb×Tai)/(Cai×Tb))×100 wherein symbols represent as follows: Cb: the number of insects in a non-treated section before treatment, Cai: the number of insects in a non-treated section in observation, Tb: the number of insects in a treated-section before treatment, Tai: the number of insects in a treated-section in observation.

Bounds are passed on as bounds.

As to `Cn1c(-c2ccncn2)nc2cc(C(F)(F)F)ccc21` [Compound 2], the pest or weed control at 500 ppm in the assay with Bemisia tabaci and in the assay with Aphis gossypii was at least 90% each time.

For the molecule `Cn1c(-c2ncncc2OCC(F)(F)F)nc2cc(C(F)(F)F)cnc21` [Compound 3], the pest or weed control at 500 ppm in the assay on Bemisia tabaci and with Aphis gossypii was at least 90% throughout.

Regarding `CCSc1cncnc1-c1nc2cc(C(F)(F)F)cnc2n1C` [Compound 4], the pest or weed control at 500 ppm in the assay with Bemisia tabaci and in the assay on Aphis gossypii was at least 90% in each case.

With `CC[S+]([O-])c1cncnc1-c1nc2cc(C(F)(F)F)cnc2n1C` (stereo not shown) [Compound 5], the pest or weed control at 500 ppm in the assay on Bemisia tabaci and with Aphis gossypii was at least 90% in each case.

For `CCS(=O)(=O)c1cncnc1-c1nc2cc(C(F)(F)F)cnc2n1C` [Compound 6], the pest or weed control at 500 ppm with Bemisia tabaci and in the assay on Aphis gossypii was at least 90% each time.

Take `CCSc1cncnc1-c1nc2cc(C(F)(F)F)ccc2n1C` [Compound 7, 2-(5-ethylthiopyrimidin-4-yl)-1-methyl-5-trifluoromethyl-1H-benzimidazole]: the pest or weed control at 500 ppm in the assay on Bemisia tabaci and with Aphis gossypii was at least 90% throughout.

Take `CC[S+]([O-])c1cncnc1-c1nc2cc(C(F)(F)F)ccc2n1C` (stereo not shown) [Compound 8]: the pest or weed control at 500 ppm in the assay with Bemisia tabaci and with Aphis gossypii was at least 90% each time.

Take `CCS(=O)(=O)c1cncnc1-c1nc2cc(C(F)(F)F)ccc2n1C` [Compound 9]: the pest or weed control at 500 ppm with Bemisia tabaci and in the assay with Aphis gossypii was at least 90% each time.

In the case of `CCc1cncnc1-c1nc2cc(C(F)(F)F)ccc2o1` [Compound 10], the pest or weed control at 500 ppm in the assay with Bemisia tabaci and in the assay with Aphis gossypii was at least 90% each time.

As for `Cn1c(-c2ncncc2Cl)nc2cc(C(F)(F)F)cnc21` [Compound 13], the pest or weed control at 500 ppm with Bemisia tabaci and in the assay on Aphis gossypii was at least 90% each time.

Take `CCc1cncnc1-c1nc2cc(C(F)(F)F)cnc2o1` [Compound 15]: the pest or weed control at 500 ppm in the assay on Bemisia tabaci and with Aphis gossypii was at least 90% each time.
